Experiments:
[1] = test system: Ppargc1a, Thra and Thrb expression in bleomycin induced mouse lungs; assay: quantitative RT-PCR of relative gene expression in lungs, bleomycin model of lung fibrosis; type: in vivo, mice (C57/BL6); conditions: GC-1 30 μg/kg intraperitoneally every other day, days 10-18 after bleomycin; lungs at day 21; FIGS. 3A-3C
Procedure: (§1) C57B1/6, 9-12 weeks-old, female mice were purchased from Taconic Lab. Mice were anesthetized by placing them in a chamber having paper towels soaked with 40% isoflurane solution. 1.5 U/kg of bleomycin (Hospira, Ill.) or equivalent volume (50 μl) of 0.9% normal saline was administered intratracheally. To test therapeutic efficacy in bleomycin-induced established fibrosis intraperitoneal thyroid hormone receptor beta agonist (GC-1, 30 μg/kg) was administered at days 10, 12, 14, 16 and 18 following bleomycin-administration and mice were sacrificed at day 21. The lungs were harvested for fibrotic assays
qRT-PCR assay: Gene expression was determined by TaqMan® (Life Technologies, Thermo Scientific Inc. Rockford Ill., USA) according to manufacturer's instruction. β-glucuronidase (Gusb) was employed as an internal standard control and the specific primers and probes were all obtained from Life Technologies (Thermo Scientific Inc. Rockford Ill., USA). […]
9-12 weeks-old, C57/BL6 female mice were treated every other day intraperitoneally with thyroid hormone receptor beta agonist GC-1 (30 μg/kg) or equivalent volume of empty vehicle (200 μl of normal saline 0.9%) at days 10-18 following intratracheal challenge with bleomycin (1.5 U/kg) or normal saline 0.9%. […] FIGS. 3A-3C illustrate quantitative RT-PCR analysis of Ppargc1a, Thra and Thrb relative expression in the bleomycin model of lung fibrosis. […]

[2] = test system: bleomycin induced lung fibrosis; assay: bleomycin-induced established lung fibrosis in mice: fibrosis and Masson's Trichrome histology; type: in vivo, mice (C57/BL6); conditions: for collagen deposition in the interstitium, peribronchiolar, or perivascular space (Masson's Trichrome staining): days 10-18 after bleomycin, day 21 lung sections; for established fibrosis in bleomycin induced lung fibrosis: days 10-18 after intratracheal bleomycin 1.5 U/kg, sacrifice day 21
Procedure: as §1
Hydroxyproline: Lung hydroxyproline was analyzed with hydroxyproline colorimetric assay kit from Biovision (Milpitas, Calif.) following manufacturer's instruction.
Histology: Tissue sections (4 μm) were stained with Masson Trichrome (collagen/connective tissue), two slices per animal, and two animals per group.
FIG. 1 illustrates an experiment where mice with bleomycin-induced fibrosis were treated with GC-1 intraperitoneally. On Day 0, bleomycin was delivered intratracheally to the mice (1.5 U/kg). On days 10-18, the mice were administered 30 μg/kg of GC-1 (200 μl) or equivalent volume of vehicle (normal saline 0.9%).
9-12 weeks-old, C57/BL6 female mice were treated every other day intraperitoneally with thyroid hormone agonist GC-1 (30 μg/kg) or equivalent volume of empty vehicle (200 μl of normal saline 0.9%) at days 10-18, following intratracheal challenge with bleomycin (1.5 U/kg) or normal saline 0.9%. Mice were sacrificed at day 21. […] Data are expressed as mean hydroxyproline content per lung set (μg/gr lung)+SEM, n=8 mice/group, *p<0.05. FIGS. 2A-2D illustrate quantitative RT-PCR analysis of Col1a1, Col3a1, and FSP1 relative expression in the bleomycin model of lung fibrosis. Bars (means±SEM) are shown for the relative changes (fold) by setting the indicated control level to 1.0, *p<0.05. […]
9-12 weeks-old, C57/BL6 female mice were treated every other day orally by gavage with thyroid hormone receptor agonist GC-1 (5 mg/kg) or equivalent volume of empty vehicle (200 μl of normal saline 0.9%) at days 10-18 following intratracheal challenge with bleomycin (1.5 U/kg) or normal saline 0.9%. […] FIG. 5A: Hydroxyproline level in mice was assessed. Data are expressed as mean hydroxyproline content per lung set (μg/gr lung)+SEM, n=8 mice/group, *p<0.05. FIGS. 5B-5F illustrate quantitative RT-PCR analysis of Col1a1 (collagen, type I, alpha 1), Col3a1 (collagen, type III, alpha 1), FSP1 (fibroblast-specific protein 1), Acta (alpha-actin-2), and Ppargc1a (peroxisome proliferator-activated receptor gamma coactivator 1-alpha) relative expression in the bleomycin model of lung fibrosis. […]

For Cc1cc(OCC(=O)O)cc(C)c1Cc1ccc(O)c(C(C)C)c1 [GC-1, 2-(4-(4-hydroxy-3-isopropylbenzyl)-3,5-dimethylphenoxy)acetic acid], the “Ppargc1a relative expression (qRT-PCR)” value [1] was “regulates expression”, the “collagen deposition in the interstitium, peribronchiolar, or perivascular space (Masson's Trichrome staining)” value ([2]; GC-1 30 μg/kg intraperitoneally every other day, FIG. 2E) was “significant decrease in collagen deposition” and the “established fibrosis in bleomycin induced lung fibrosis” value ([2]; GC-1 30 μg/kg intraperitoneally every other day, FIGS. 2A-2E) was “blunt established fibrosis”. The “collagen deposition in the interstitium, peribronchiolar, or perivascular space (Masson's Trichrome staining)” value ([2]; GC-1 5 mg/kg orally by gavage every other day) was “significant decrease in collagen deposition” and the “established fibrosis in bleomycin induced lung fibrosis” value ([2]; GC-1 5 mg/kg orally by gavage every other day, FIGS. 5A-5G) was “blunt established fibrosis”.

Source: patent publication US11660281B2, “Compositions and methods of treating or preventing fibrotic lung diseases” (YALE UNIVERSITY, priority 2017, dated 2023)
